“And” between values parts separate entries of the source, which are not always exact repeats. Equal entries are not always repeated.
Assays:
HL-60 [1] = assay: Potency index, ratio of test compound IC50 to dihydroartemisinin IC50 for antiproliferative activity against human HL-60 cells assessed as reduction in cell viability measured after 72 hrs; type: functional
MCF7 [2] = assay: Antiproliferative activity against doxorubicin resistant human MCF7 cells; type: functional, cell-based
P388 [3] = assay: Potency index, ratio of test compound IC50 to dihydroartemisinin IC50 for antiproliferative activity against mouse P388 cells assessed as reduction in cell viability measured after 72 hrs; type: functional
HL-60 [4] = assay: Antiproliferative activity against human HL-60 cells assessed as reduction in cell viability measured after 72 hrs; type: functional, cell-based; conditions: HL-60, 72 h
[5] = Antiproliferative activity against mouse P388 cells assessed as reduction in cell viability measured after 72 hrs; type: functional, cell-based; conditions: 72 h
P388/ADR [6] = assay: Potency index, ratio of test compound IC50 to dihydroartemisinin IC50 for antiproliferative activity against mouse P388/ADR cells assessed as reduction in cell viability measured after 72 hrs; type: functional
P388/ADR [7] = assay: Antiproliferative activity against mouse P388/ADR cells assessed as reduction in cell viability measured after 72 hrs; type: functional, cell-based; conditions: 72 h
[8] = Anticancer activity against human Lu1 cells; type: functional, cell-based
MCF7 [9] = assay: Anticancer activity against human MCF7 cells; type: functional, cell-based
HL-60 [10] = assay: Anticancer activity against human HL-60 cells; type: functional, cell-based
MCF7 [11] = assay: Anticancer activity against human MCF7 cells assessed as inhibition of cell growth; type: functional, cell-based
MCF7 [12] = assay: Potency index, ratio of dihydroartemisinin IC50 to test compound IC50 for anticancer activity against human MCF7 cells; type: functional
HL-60 [13] = assay: Potency index, ratio of dihydroartemisinin IC50 to test compound IC50 for anticancer activity against human HL-60 cells; type: functional
[14] = Potency index, ratio of dihydroartemisinin IC50 to test compound IC50 for anticancer activity against human Lu1 cells; type: functional
[15] = Potency index, ratio of dihydroartemisinin IC50 to test compound IC50 for anticancer activity against mouse […] cells; type: functional
P388 [16] = assay: Anticancer activity against mouse P388 cells; type: functional, cell-based
C2G cell line = assay: Antiproliferative activity against mouse C2G cell line; type: functional, cell-based
Leukemia cell [17] = assay: Antiproliferative activity against human Leukemia cell assessed as reduction in cell viability; type: functional, cell-based
Leukemia cell [18] = assay: Potency index, ratio of artesunate IC50 to test compound IC50 for antiproliferative activity against human Leukemia cell assessed as inhibition of cell growth; type: functional
TRAMP-C1A [19] = assay: Cytotoxicity against mouse TRAMP-C1A cells assessed as inhibition of cell growth measured for 72 hrs by MTT assay; type: functional
LNCaP = assay: Cytotoxicity against human LNCaP cells assessed as inhibition of cell growth measured for 72 hrs by MTT assay; type: functional
HeLa [20] = assay: Antiproliferative activity against human HeLa cells assessed as reduction in cell viability; type: functional, cell-based
TRAMP-C2H [21] = assay: Cytotoxicity against mouse TRAMP-C2H cells assessed as inhibition of cell growth measured for 72 hrs by MTT assay; type: functional
HCT-116 [22] = assay: Antiproliferative activity against human HCT-116 cells assessed as reduction in cell viability; type: functional, cell-based; conditions: hct-116
HCT-116 [23] = assay: Potency index, ratio of artesunate IC50 to test compound IC50 for antiproliferative activity against human HCT-116 cells assessed as inhibition of cell growth; type: functional
HeLa [24] = assay: Potency index, ratio of artesunate IC50 to test compound IC50 for antiproliferative activity against human HeLA cells assessed as inhibition of cell growth; type: functional
TRAMP-C2H [25] = assay: Antiproliferative activity against mouse TRAMP-C2H cells; type: functional, cell-based
C2D cell line = assay: Antiproliferative activity against mouse C2D cell line; type: functional, cell-based
TRAMP-C1A [26] = assay: Antiproliferative activity against mouse TRAMP-C1A cells; type: functional, cell-based
[27] = molecular target: c-Jun N-terminal kinase, JNK (Homo sapiens, UniProt P45983+P53779+P45984); assay: Inhibition of N-terminal c-Jun phosphorylation in human HeLa cells; type: cell-based

For `C[C@H]1[C@@H](Oc2ccc(CCn3ccnn3)cc2)O[C@@H]2O[C@@]3(C)CC[C@H]4[C@H](C)CC[C@@H]1[C@@]24OO3`, the “Ratio IC50” value (HL-60 [1]) was 4.6, the IC50 (MCF7 [2]) was 47 nM and the “Ratio IC50” value (P388 [3]) was 4.6. For the same compound, the IC50 (HL-60 [4]) was 65 nM, the IC50 [5] was 47 nM and the “Ratio IC50” value (P388/ADR [6]) was 4.6. The IC50 (P388/ADR [7]) was 2890 nM.

Compound `CC1CCNC(C(=O)c2ccc(-n3cc(CO[C@H]4O[C@@H]5O[C@@]6(C)CC[C@H]7[C@H](C)CC[C@@H]([C@H]4C)[C@@]57OO6)nn3)cc2)C1` (some centres not stated) has an IC50 [8] of 2500 nM, an IC50 (MCF7 [9]) of 2500 nM and an IC50 (HL-60 [10]) of 2500 nM. For the same compound, the IC50 (MCF7 [11]) was 2500 nM, the “Ratio IC50” value (MCF7 [12]) was 10.5 and the “Ratio IC50” value (HL-60 [13]) was 10.5. The “Ratio IC50” value [14] was 10.5, the “Ratio IC50” value [15] was 10.5 and the IC50 (P388 [16]) was 2500 nM.

Compound `Nc1ccn([C@@H]2O[C@H](CO)[C@@H](O)C2(F)F)c(=O)n1` [GEMCITABINE] has an IC50 (C2G cell line) of 3.7 nM.

With `C[C@H]1[C@@H](CC(COP(=O)(Oc2ccccc2)Oc2ccccc2)C[C@H]2O[C@@H]3O[C@]4(C)CC[C@H]5[C@H](C)CC[C@@H]([C@H]2C)[C@@]35OO4)O[C@@H]2O[C@@]3(C)CC[C@H]4[C@H](C)CC[C@@H]1[C@@]24OO3` (some centres not stated) the IC50 (Leukemia cell [17]) was 100 nM, the “Ratio IC50” value (Leukemia cell [18]) was 68.8 and the GI50 (TRAMP-C1A [19]) was 31.9 nM. It also gave a GI50 (LNCaP) of 34.4 nM, an IC50 (HeLa [20]) of 40 nM and a GI50 (TRAMP-C2H [21]) of 44.8 nM. For the same compound, the IC50 (HCT-116 [22]) was 40 nM and 190 nM, the “Ratio IC50” value (HCT-116 [23]) was 68.8 and the “Ratio IC50” value (HeLa [24]) was 68.8.

For `C[C@H]1[C@@H](OC(COC(=O)c2cc[n+]([O-])cc2)C[C@H]2O[C@@H]3O[C@@]4(C)CC[C@H]5[C@H](C)CC[C@@H]([C@H]2C)[C@@]35OO4)O[C@@H]2O[C@@]3(C)CC[C@H]4[C@H](C)CC[C@@H]1[C@@]24OO3` (some centres not stated), the IC50 (TRAMP-C2H [25]) was 36.1 nM, the IC50 (C2D cell line) was 36.1 nM and the IC50 (C2G cell line) was 36.1 nM. For the same compound, the IC50 (TRAMP-C1A [26]) was 36.1 nM.

Compound `Cc1cc(N/N=C/c2ccc(O[C@H]3O[C@@H]4O[C@@]5(C)CC[C@H]6[C@H](C)CC[C@@H]([C@H]3C)[C@@]46OO5)cc2)c2cc(Cl)ccc2n1` has an IC50 [27] of 7500 nM and an IC50 (MCF7 [9]) of 15000 nM.
